Results as given in patent publication US11407736B2 (priority 2019, dated 2022).
Read-outs that look alike come from different tables or passages of the source.

Tests used:
RIPK1 = RIPK1 (Homo sapiens (Human), UniProt Q13546); test: RIPK1 ADP-Glo biochemical kinase assay
Protocol: The final reaction volume was 5.0ul.
Adding 5 μl of ADP-Glo™ terminated the reaction.

U937 cells = test: U937 cell necroptosis assay (TNFa + zVAD, CellTiter-Glo); format: cell-based, human; conditions: Homo sapiens
Protocol: (§1) In this example, U937 and L929 cells were exposed to compounds of the present disclosure and a cell necroptosis assay was conducted to evaluate the compounds' activity against human RIP1 and murine RIP1.
(§2) U937 and L929 cells were obtained from the American Type Culture Collection (Manassa, Va., USA). Both cells were maintained in logarithmic growth phase in complete RPMI 1640 media (Sigma, ST Louis, Mo., USA) supplemented with 10% fetal bovine serum (Sigma, ST Louis, Mo., USA) at 37° C. with 5% CO2. For necroptosis assay, L929 cells were plated for 18 h in 100 μL/well medium at 10K cells/well in Costar 96-well black clear-bottom plates (Fisher Scientific, Hampton, N.H., USA); U937 cells were plated on the day of the assay in 50 4/well medium containing 60 uM zVAD-fink (Lonza, Basel, Switzerland) at 50K cells/well. Medium from L929 cells were removed from the 96-well plates and replaced with 50 μL/well new medium containing 40 uM zVAD-fink. Each compound of the present disclosure evaluated in this example was serially diluted in DMSO from 2.5 mM in 4-fold dilutions, and then diluted 1:125 in complete medium. 50 μL/well 2× of the compound was then added to the cells in the plates. The cells were pre-incubated with the compound for 1 hour at 37° C. with 5% CO2 and before addition of 10 μL/well 1 1×TNFa (Peprotech, Rocky Hill, N.J., USA) to give a final concentration of 2 ng/mL for TNFa. The relative amount of necroptosis cells was determined by luminescent using a Wallac Victor2 Luminometer (PerkinElmer, Waltham, Mass., USA) and a CellTiter-Glo® Luminescent Cell Viability Reagent Assay (Promega, Madison, Wis., USA) added per manufacturer instructions after 18 hours of TNFa stimulation at 37° C. with 5% CO2. This example establishes that embodiments of the compounds described herein have unexpectedly potent activity against human RIP1 and murine RIP1, which allows their assessment in in vivo mouse models of disease.

L929 cells = test: L929 cell necroptosis assay (TNFa + zVAD, CellTiter-Glo); format: cell-based, murine; conditions: Mus musculus, L929, L929 cells, TNFa + zVAD; read-out: L929-CTG-recovery, L929, TNFa + zVAD (IC50)
Protocol: as §1
as §2, with “The cells were pre-incubated with the compound for 1 hour at 37° C. with 5% CO2 and before addition of 10 μL/well 1 1×TNFa (Peprotech, Rocky Hill, N.J., USA) to give a final concentration of 2 ng/mL for TNFa.” left out, “CO2.” for “CO2. This example establishes that embodiments of the compounds described herein have unexpectedly potent activity against human RIP1 and murine RIP1, which allows their assessment in in vivo mouse models of disease.”

[1] = read-out: RIPK1 ADP-Glo Kinase (IC50)
[2] = U-937, U937 cells, TNFa + zVAD, read-out: U937 Zvad TNF CTG Recovery, U937, TNFa + zVAD (IC50)
[3] = U-937, read-out: U937 Zvad TNF CTG Recovery, U937, TNFa + zVAD (IC50), U937 cells, TNFa + zVAD

RIPK1, sequence (Q13546 whole entry, species assumed): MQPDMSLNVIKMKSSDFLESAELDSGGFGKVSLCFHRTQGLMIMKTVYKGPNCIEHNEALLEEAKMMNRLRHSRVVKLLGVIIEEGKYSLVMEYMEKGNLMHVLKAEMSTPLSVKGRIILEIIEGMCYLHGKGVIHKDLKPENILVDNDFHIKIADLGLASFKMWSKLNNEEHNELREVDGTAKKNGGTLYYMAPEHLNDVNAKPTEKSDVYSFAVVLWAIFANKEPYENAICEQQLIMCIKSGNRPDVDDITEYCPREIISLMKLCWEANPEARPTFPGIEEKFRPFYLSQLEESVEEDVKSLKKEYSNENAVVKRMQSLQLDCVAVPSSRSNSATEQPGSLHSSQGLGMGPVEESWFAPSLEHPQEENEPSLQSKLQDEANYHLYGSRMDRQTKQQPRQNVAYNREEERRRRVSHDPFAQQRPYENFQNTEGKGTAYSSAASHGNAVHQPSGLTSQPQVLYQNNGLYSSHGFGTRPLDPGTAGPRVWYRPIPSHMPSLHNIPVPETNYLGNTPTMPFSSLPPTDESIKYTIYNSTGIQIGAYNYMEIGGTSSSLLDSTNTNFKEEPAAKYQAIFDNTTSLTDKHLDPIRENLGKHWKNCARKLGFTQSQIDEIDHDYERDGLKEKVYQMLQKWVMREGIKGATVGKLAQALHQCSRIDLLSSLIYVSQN

| SMILES | IC50 (RIPK1; [1]) | IC50 (U937 cells; [2]) | IC50 (RIPK1) | IC50 (U937 cells; [3]) | IC50 (L929 cells) |
| --- | --- | --- | --- | --- | --- |
| CN1C(=O)[C@@H](NC(=O)c2cc(Oc3ccccc3)ccn2)COc2ccc(CN3CC4(CCOCC4)C3)cc21 [Compound I-150, (S)—N-(7-((7-oxa-2-azaspiro[3.5]nonan-2-yl)methyl)-5-methyl-4-oxo-2,3,4,5-tetrahydrobenzo[b][1,4]oxazepin-3-yl)-4-phenoxypicolinamide] | – | 83.1 nM | 44.7 nM | – | – |
| COc1ccnc(C(=O)N[C@H]2COc3ccc(C#CC4(O)COC4)cc3N(C)C2=O)c1 [Compound I-162, (S)—N-(7-((3-hydroxyoxetan-3-yl)ethynyl)-5-methyl-4-oxo-2,3,4,5-tetrahydrobenzo[b][1,4]oxazepin-3-yl)-4-methoxypicolinamide] | 54.4 nM | 1660 nM | – | – | – |
| CN1C(=O)[C@@H](NC(=O)c2cc(Oc3ccccc3)ccn2)COc2ccc(C#CC3(O)CS(=O)(=O)C3)cc21 [Compound I-209, (S)—N-(7-((3-hydroxy-1,1-dioxidothietan-3-yl)ethynyl)-5-methyl-4-oxo-2,3,4,5-tetrahydrobenzo[b][1,4]oxazepin-3-yl)-4-phenoxypicolinamide] | 106 nM | – | – | 59.5 nM | – |
| COc1ccnc(C(=O)N[C@H]2COc3ccc(C#CC(C)(C)O)cc3N(C)C2=O)c1 [Compound I-163, (S)—N-(7-(3-hydroxy-3-methylbut-1-yn-1-yl)-5-methyl-4-oxo-2,3,4,5-tetrahydrobenzo[b][1,4]oxazepin-3-yl)-4-methoxypicolinamide] | 509 nM | – | – | 3320 nM | – |
| CN1C(=O)[C@@H](NC(=O)c2cc(Oc3ccc(C#N)cc3)ccn2)COc2cc(C#CC(C)(C)O)ccc21 [II-17, (S)-4-(4-cyanophenoxy)-N-(8-(3-hydroxy-3-methylbut-1-yn-1-yl)-5-methyl-4-oxo-2,3,4,5-tetrahydrobenzo[b][1,4]oxazepin-3-yl)picolinamide] | 518 nM | 1490 nM | – | – | – |
| CN1C(=O)[C@@H](NC(=O)c2cc(Oc3ccc(F)cc3)ccn2)COc2ccc(C#CC3(O)CCNCC3)cc21 [Compound I-133, (S)-4-(4-fluorophenoxy)-N-(7-((4-hydroxypiperidin-4-yl)ethynyl)-5-methyl-4-oxo-2,3,4,5-tetrahydrobenzo[b][1,4]oxazepin-3-yl)picolinamide] | 173 nM | 492 nM | – | – | – |
| CN1C(=O)[C@@H](NC(=O)c2cc(Oc3ccccc3)ccn2)COc2cc(N3CCC4(CCOCC4)CC3)ccc21 [II-26, (S)—N-(5-methyl-4-oxo-8-(3-oxa-9-azaspiro[5.5]undecan-9-yl)-2,3,4,5-tetrahydrobenzo[b][1,4]oxazepin-3-yl)-4-phenoxypicolinamide] | – | 510 nM | 193 nM | – | – |
| CN1C(=O)[C@@H](NC(=O)c2n[nH]c(Cc3ccccc3)n2)COc2ccc(C#CC3(O)CCC3)cc21 [Compound I-51, (S)-5-benzyl-N-(7-((1-hydroxycyclobutyl)ethynyl)-5-methyl-4-oxo-2,3,4,5-tetrahydrobenzo[b][1,4]oxazepin-3-yl)-1H-1,2,4-triazole-3-carboxamide] | 31.7 nM | – | – | – | – |
| CN1C(=O)[C@@H](NC(=O)c2cc(Oc3ccccc3)ccn2)COc2ccc(C#CC3(F)CN(CC(F)(F)F)C3)cc21 [Compound I-168, (S)—N-(7-((3-fluoro-1-(2,2,2-trifluoroethyl)azetidin-3-yl)ethynyl)-5-methyl-4-oxo-2,3,4,5-tetrahydrobenzo[b][1,4]oxazepin-3-yl)-4-phenoxypicolinamide] | – | 0.9 nM | – | – | 103 nM |
| CN1C(=O)[C@@H](NC(=O)c2cc(Oc3ccccc3)ccn2)COc2ccc(C#CC3(F)CN(CC4CC4)C3)cc21 [Compound I-169, (S)—N-(7-((1-(cyclopropylmethyl)-3-fluoroazetidin-3-yl)ethynyl)-5-methyl-4-oxo-2,3,4,5-tetrahydrobenzo[b][1,4]oxazepin-3-yl)-4-phenoxypicolinamide] | – | 2.2 nM | – | – | 148 nM |

The next lines start with results.

| IC50 (RIPK1; [1]) | SMILES | IC50 (U937 cells; [2]) | IC50 (RIPK1) | IC50 (U937 cells; [3]) | IC50 (L929 cells) |
| --- | --- | --- | --- | --- | --- |
| 36.2 nM | CN1C(=O)[C@@H](NC(=O)c2cc(Oc3ccccc3)ccn2)COc2ccc(C#CC(=O)O)cc21 [Compound I-161, (S)-3-(5-methyl-4-oxo-3-(4-phenoxypicolinamido)-2,3,4,5-tetrahydrobenzo[b][1,4]oxazepin-7-yl)propiolic acid] | 45.5 nM | – | – | – |
| 53.9 nM | CN1C(=O)[C@@H](NC(=O)c2n[nH]c(Cc3ccccc3)n2)COc2ccc(CCC(=O)NC3CC3)cc21 [Compound I-13, (S)-5-benzyl-N-(7-(3-(cyclopropylamino)-3-oxopropyl)-5-methyl-4-oxo-2,3,4,5-tetrahydrobenzo[b][1,4]oxazepin-3-yl)-1H-1,2,4-triazole-3-carboxamide] | 13.8 nM | – | – | – |
| 158 nM | CN1C(=O)[C@@H](NC(=O)c2n[nH]c(Cc3ccc(F)cc3F)n2)COc2ccc(CCC(=O)NC3CC3)cc21 [Compound I-27, (S)—N-(7-(3-(cyclopropylamino)-3-oxopropyl)-5-methyl-4-oxo-2,3,4,5-tetrahydrobenzo[b][1,4]oxazepin-3-yl)-5-(2,4-difluorobenzyl)-1H-1,2,4-triazole-3-carboxamide] | 69.7 nM | – | – | – |
| 33.4 nM | CN1C(=O)[C@@H](NC(=O)c2n[nH]c(Cc3ccccc3)n2)COc2ccc(CCC(N)=O)cc21 [Compound I-31, (S)—N-(7-(3-amino-3-oxopropyl)-5-methyl-4-oxo-2,3,4,5-tetrahydrobenzo[b][1,4]oxazepin-3-yl)-5-benzyl-1H-1,2,4-triazole-3-carboxamide] | 33.7 nM | – | – | – |
| 12300 nM | CN1C(=O)[C@@H](NC(=O)c2ccc(Oc3ccc(F)cc3)cn2)COc2ccc(C#CC(C)(C)O)cc21 [Compound I-122, (S)-5-(4-fluorophenoxy)-N-(7-(3-hydroxy-3-methylbut-1-yn-1-yl)-5-methyl-4-oxo-2,3,4,5-tetrahydrobenzo[b][1,4]oxazepin-3-yl)picolinamide] | 40400 nM | – | – | – |
| 56.8 nM | COc1cc2ncnc(NC(=O)CCc3ccc4c(c3)N(C)C(=O)[C@@H](NC(=O)c3n[nH]c(Cc5ccccc5)n3)CO4)c2cc1OC [Compound I-4, (S)-5-benzyl-N-(7-(3-((6,7-dimethoxyquinazolin-4-yl)amino)-3-oxopropyl)-5-methyl-4-oxo-2,3,4,5-tetrahydrobenzo[b][1,4]oxazepin-3-yl)-1H-1,2,4-triazole-3-carboxamide] | 29.3 nM | – | – | – |
| 189 nM | CN1C(=O)[C@@H](NC(=O)c2n[nH]c(Cc3ccccc3)n2)COc2ccc(CCC(=O)O)cc21 [Compound I-9, (S)-3-(3-(5-benzyl-1H-1,2,4-triazole-3-carboxamido)-5-methyl-4-oxo-2,3,4,5-tetrahydrobenzo[b][1,4]oxazepin-7-yl)propanoic acid] | 362 nM | – | – | – |
| 12400 nM | CN1C(=O)[C@@H](NC(=O)c2ccc(Oc3ccccc3)cn2)COc2ccc(C#CC(C)(C)O)cc21 [Compound I-121, (S)—N-(7-(3-hydroxy-3-methylbut-1-yn-1-yl)-5-methyl-4-oxo-2,3,4,5-tetrahydrobenzo[b][1,4]oxazepin-3-yl)-5-phenoxypicolinamide] | 30300 nM | – | – | – |
| 15.7 nM | CN1C(=O)[C@@H](NC(=O)c2n[nH]c(Cc3ccccc3)n2)COc2ccc(CCC(=O)Nc3ccc4[nH]ncc4c3)cc21 [Compound I-2, (S)—N-(7-(3-((1H-indazol-5-yl)amino)-3-oxopropyl)-5-methyl-4-oxo-2,3,4,5-tetrahydrobenzo[b][1,4]oxazepin-3-yl)-5-benzyl-1H-1,2,4-triazole-3-carboxamide] | 31.9 nM | – | – | – |
